The source made the active and inactive calls. Where only a bound is given, the exact number is not on record here.

The text below walks through data of ChEMBL document CHEMBL4371026, “Prodrugs of the cancer cell selective anti-cancer agent (Z)-2-(1H-indol-3-yl)-3-(isoquinolin-5-yl)acrylonitrile (A131) are orally efficacious in a mouse model of resistant colon cancer” (Bioorg Med Chem Lett, 2019).

Data set [1] deals with BJ. The data set is described as follows: Induction of mitosis in transformed human BJ cells assessed as increase in pH3 Ser10 expression at 5 uM after 24 hrs by Western blot analysis relative to control. Type of data set: functional. (In general: Immunoblotting shows a protein as a band on a membrane.)
The test system of data set [2] is BJ. In words: Induction of autophagy in transformed human BJ cells assessed as increase in LC3-2 to LC3-1 ratio at 5 uM after 24 hrs by Western blot analysis relative to control. Type of data set: functional.
Data set [3] is described as follows: Prodrug conversion in pH 7.4 10% FBS assessed as formation of A131 measured at 1 hr by LC-MS/MS analysis relative to parent compound. It counts as ADME. The settings on record: cattle, pH 7.4, 1 h.
Data set [4] in a line: Prodrug conversion in pH 7.4 10% FBS assessed as formation of A131 measured at 2 hrs by LC-MS/MS analysis relative to parent compound. The conditions noted are these: cattle, pH 7.4, 2 h. Type of data set: ADME.
A short description of data set [5]: Prodrug conversion in pH 7.4 10% FBS assessed as formation of A131 measured at 3 hrs by LC-MS/MS analysis relative to parent compound. Type of data set: ADME. The conditions noted are these: cattle, pH 7.4, 3 h.
The nature of data set [6]: Prodrug conversion in pH 7.4 10% FBS assessed as formation of A131 measured at 6 hrs by LC-MS/MS analysis relative to parent compound. It counts as ADME. The conditions noted are these: cattle, pH 7.4, 6 h.
Data set [7] can be described thus: Prodrug conversion in pH 7.4 10% FBS assessed as formation of A131 by measuring apparent half life. Type of data set: ADME. The settings on record: cattle.
Data set [8] is described as follows: Prodrug conversion in pH 7.4 phosphate buffer saline assessed as formation of A131 by measuring apparent half life. It counts as ADME.
Data set [9] in a line: Prodrug conversion in human plasma assessed as formation of A131 by measuring apparent half life. It counts as ADME, cell-free.
Data set [10] in a line: Prodrug conversion in mouse plasma assessed as formation of A131 by measuring apparent half life. It counts as ADME, cell-free.
Data set [11] in a line: Half life in simulated gastric fluid TS. Type of data set: ADME.
Data set [12] can be described thus: Half life in simplified simulated gastric fluid. It counts as ADME.
The nature of data set [13]: Stability in simulated gastric fluid TS assessed as parent compound remaining at 24 hrs. It counts as ADME. The settings on record: read-out: Stability.
Data set [14] is described as follows: Stability in simplified simulated gastric fluid assessed as parent compound remaining at 24 hrs. Type of data set: ADME. The settings on record: read-out: Stability.
Data set [15] is described as follows: Stability in human plasma assessed as compound hydrolysis measured within 15 mins. The settings on record: read-out: Drug degradation. It counts as ADME, cell-free.
Data set [16] is described as follows: Stability in acidic pH assessed as compound hydrolysis. It counts as physicochemical.
Data set [17] concerns HCT-15. In words: Anticancer activity against paclitaxel-resistant human HCT15 cells xenografted in BALB/c athymic mouse assessed as tumor growth inhibition at 40 mg/kg, iv administered thrice every 4 days. Type of data set: functional, organism-based. For orientation: A xenograft is tissue or cells of one species grown in another, often human tumour cells in immunodeficient mice.

The test system of data set [18] is HCT-15. In words: Anticancer activity against paclitaxel-resistant human HCT15 cells xenografted in BALB/c athymic mouse assessed as tumor volume at 40 mg/kg, iv administered thrice every 4 days measured on day 1 (reference value: 110 +/- 11 mm3). It counts as functional.
Data set [19] has as its system HCT-15. In words: Anticancer activity against paclitaxel-resistant human HCT15 cells xenografted in BALB/c athymic mouse assessed as tumor volume at 40 mg/kg, iv administered thrice every 4 days measured on day 3 (reference value: 180 +/- 36 mm3). It counts as functional.
For data set [20], the system named is HCT-15. In words: Anticancer activity against paclitaxel-resistant human HCT15 cells xenografted in BALB/c athymic mouse assessed as tumor volume at 40 mg/kg, iv administered thrice every 4 days measured on day 5 (reference value: 329 +/- 45 mm3). It counts as functional.
Data set [21] has as its system HCT-15. In words: Anticancer activity against paclitaxel-resistant human HCT15 cells xenografted in BALB/c athymic mouse assessed as tumor volume at 40 mg/kg, iv administered thrice every 4 days measured on day 7 (reference value: 495 +/- 109 mm3). Type of data set: functional.
Data set [22] deals with HCT-15. In words: Anticancer activity against paclitaxel-resistant human HCT15 cells xenografted in BALB/c athymic mouse assessed as tumor volume at 40 mg/kg, iv administered thrice every 4 days measured on day 9 (reference value: 546 +/- 87 mm3). It counts as functional.
Data set [23] relates to HCT-15. The data set is described as follows: Anticancer activity against paclitaxel-resistant human HCT15 cells xenografted in BALB/c athymic mouse assessed as tumor volume at 40 mg/kg, iv administered thrice every 4 days measured on day 12 (reference value: 779 +/- 144 mm3). It counts as functional.
Data set [24] has as its system HCT-15. The data set is described as follows: Anticancer activity against paclitaxel-resistant human HCT15 cells xenografted in BALB/c athymic mouse assessed as tumor volume at 20 mg/kg, ip administered twice a day for 12 days measured on day 1 (reference value: 110 +/- 11 mm3). It counts as functional.
Data set [25] concerns HCT-15. In words: Anticancer activity against paclitaxel-resistant human HCT15 cells xenografted in BALB/c athymic mouse assessed as tumor volume at 20 mg/kg, ip administered twice a day for 12 days measured on day 3 (reference value: 180 +/- 36 mm3). It counts as functional.
The test system of data set [26] is HCT-15. In words: Anticancer activity against paclitaxel-resistant human HCT15 cells xenografted in BALB/c athymic mouse assessed as tumor volume at 20 mg/kg, ip administered twice a day for 12 days measured on day 5 (reference value: 329 +/- 45 mm3). Type of data set: functional.
The subject of data set [27] is HCT-15. The data set is described as follows: Anticancer activity against paclitaxel-resistant human HCT15 cells xenografted in BALB/c athymic mouse assessed as tumor volume at 20 mg/kg, ip administered twice a day for 12 days measured on day 7 (reference value: 495 +/- 109 mm3). Type of data set: functional.
Data set [28] concerns HCT-15. The data set is described as follows: Anticancer activity against paclitaxel-resistant human HCT15 cells xenografted in BALB/c athymic mouse assessed as tumor volume at 20 mg/kg, ip administered twice a day for 12 days measured on day 9 (reference value: 546 +/- 87 mm3). Type of data set: functional.
Data set [29] has as its system HCT-15. In words: Anticancer activity against paclitaxel-resistant human HCT15 cells xenografted in BALB/c athymic mouse assessed as tumor volume at 20 mg/kg, ip administered twice a day for 12 days measured on day 12 (reference value: 779 +/- 144 mm3). Type of data set: functional.
The subject of data set [30] is HCT-15. In words: Anticancer activity against paclitaxel-resistant human HCT15 cells xenografted in BALB/c athymic mouse assessed as tumor growth inhibition at 40 mg/kg, ip administered twice a day for 12 days. It counts as functional, organism-based.
For data set [31], the system named is HCT-15. In words: Anticancer activity against paclitaxel-resistant human HCT15 cells xenografted in BALB/c athymic mouse assessed as cell death at 40 mg/kg, ip or 80 mg/kg, po administered twice a day for 12 days by TUNEL staining based assay. It counts as functional, organism-based.
Data set [32] relates to HCT-15. The data set is described as follows: Anticancer activity against paclitaxel-resistant human HCT15 cells xenografted in BALB/c athymic mouse assessed as formation of misaligned chromosomes with multipolar spindles at 40 mg/kg, ip or 80 mg/kg, po administered twice a day for 12 days by immunohistochemical analysis. Type of data set: functional, organism-based.
The subject of data set [33] is HCT-15. The data set is described as follows: Anticancer activity against paclitaxel-resistant human HCT15 cells xenografted in BALB/c athymic mouse assessed as tumor growth inhibition at 20 mg/kg, ip administered twice a day for 12 days. It counts as functional, organism-based.

Regarding `CS(=O)(=O)n1cc(/C(C#N)=C/c2cccc3cnccc23)c2ccccc21`, the “fold change (FC)” value in the data set on BJ [1] is 0.4; with BJ [2] it was 0.8.
Taken in the same sequence, the figures for `Cn1cc(/C(C#N)=C/c2cccc3cnccc23)c2ccccc21` were 1.1 and 1.6.
By half-life is commonly meant the time needed for the level to fall by half in the phase considered. A high value points to slow loss. As for `CN1CCN(CC(=O)n2cc(/C(C#N)=C/c3cccc4cnccc34)c3ccccc32)CC1` [listing 1 of 2 here], the “fold change (FC)” value in the data set on BJ [1] worked out at 11.8; in the data set with BJ [2] it was 5; in data set [3], 4.68; in data set [4] it was 7.51; in data set [5], 8.39; in data set [6], 8.84. The “t1/2(app)” value came to 0.9 h in data set [7], 5.3 h in data set [8], 3.42 min in data set [9] and 0.088 h in data set [10]. For the same compound, the half-life in data set [11] and in [12] was 24 h each time. Also, the remaining at 24 h in data set [13] and in [14] was 50% in each case. Moreover, the metabolised at 0.25 h in data set [15] is above 90%. Further, in data set [16], the Stability entry is listed as “Stable”.
With `CC(=O)O[C@H]1C(=O)[C@@]2(C)[C@H]([C@H](OC(=O)c3ccccc3)[C@]3(O)C[C@H](OC(=O)[C@H](O)[C@@H](NC(=O)c4ccccc4)c4ccccc4)C(C)=C1C3(C)C)[C@]1(OC(C)=O)CO[C@@H]1C[C@@H]2O` [PACLITAXEL], the TGI result in the data set on HCT-15 [17] was “Active”. Moreover, the Activity in the data set on HCT-15 [18] was determined as 119 mm3; with HCT-15 [19], 152 mm3; with HCT-15 [20], 288 mm3; in the data set with HCT-15 [21] it was 321 mm3; in the data set on HCT-15 [22], 409 mm3; in the data set with HCT-15 [23] it was 638 mm3.
On to `COCCOCC(=O)n1cc(/C(C#N)=C/c2cccc3cnccc23)c2ccccc21`, for which the “fold change (FC)” value came out at 12.8 in the data set on BJ [1] and 4.1 in the data set on BJ [2].
Taken in the same sequence, the figures for `N#C/C(=C\c1cccc2cnccc12)c1c[nH]c2ccccc12` [listing 1 of 2 here] were 7.3 and 5.
The corresponding values for `CC(C)(C)OC(=O)NCCC(=O)n1cc(/C(C#N)=C/c2cccc3cnccc23)c2ccccc21` are 4.8 and 3.9.
Consider `N#C/C(=C\c1cccc2cnccc12)c1cn(C(=O)C2CCNCC2)c2ccccc12`, for which the “fold change (FC)” value in the data set with BJ [1] is 10.1; with BJ [2], 7.3; in [3], 7.03; in data set [4] it was 13.17; in [5] it was 14.48; in [6], 16.5. For the same compound, the “t1/2(app)” value was 1.14 h in data set [7], 2.58 h in data set [8], 4.2 min in [9] and 0.208 h in data set [10]. Also, the half-life in data set [11] and in data set [12] was above 24 h throughout. Moreover, the remaining at 24 h in data set [13] and in [14] was 75% each time. Also, in data set [15], the metabolised at 0.25 h is above 90%. Besides, the Stability result in data set [16] was “Stable”.
Turning to `N#C/C(=C\c1cccc2cnccc12)c1cn(C(=O)CCN)c2ccccc12`, the “fold change (FC)” value with BJ [1] stood at 2.1; with BJ [2] it was 4.1.
Turning to `Cl.N#C/C(=C\c1cccc2cnccc12)c1c[nH]c2ccccc12`, the Activity with HCT-15 [24] amounted to 116 mm3; in the data set on HCT-15 [25] it was 125 mm3; with HCT-15 [26], 153 mm3; with HCT-15 [27] it was 204 mm3; with HCT-15 [28] it was 225 mm3; in the data set on HCT-15 [29], 289 mm3.
As for `CN1CCN(C(=O)Cn2cc(/C(C#N)=C/c3cccc4cnccc34)c3ccccc32)CC1`, the figures for the “fold change (FC)” value in the data set on BJ [1] and in the data set with BJ [2] were 1.3 and 1.9, respectively.
Regarding `CC(=O)NCCC(=O)n1cc(/C(C#N)=C/c2cccc3cnccc23)c2ccccc21`, the “fold change (FC)” value in the data set on BJ [1] stood at 2.8; in the data set on BJ [2], 2.3.
The corresponding values for `CC(C)(C)OC(=O)N1CCC(C(=O)n2cc(/C(C#N)=C/c3cccc4cnccc34)c3ccccc32)CC1` are 16.2 and 5.2.
On to `CN1CCN(CC(=O)n2cc(/C(C#N)=C/c3cccc4cnccc34)c3ccccc32)CC1` [listing 2 of 2 here], for which the TGI result with HCT-15 [30] is “Active”. In addition, the result in the data set with HCT-15 [31] and in the data set on HCT-15 [32] was Active.
Take `N#C/C(=C\c1cccc2cnccc12)c1c[nH]c2ccccc12` [listing 2 of 2 here]: the TGI result with HCT-15 [33] was “Active”.
For the compound `CCN(CC)C(=O)n1cc(/C(C#N)=C/c2cccc3cnccc23)c2ccccc21`, the “fold change (FC)” value in the data set on BJ [1] is 0.6; in the data set with BJ [2] it was 0.9.
